Structures can show the parent of a compound that is named as a salt.
Assays:
[1] = system: patients, abdominal surgeries; experiment: Adverse reactions pooled from laparoscopic, laparoscopically-assisted and open abdominal surgery studies; assay type: in vivo, human; conditions: adjusted percentage
[2] = human, in vivo

CCCCN1CCCCC1C(=O)Nc1c(C)cccc1C (stereo not shown) [Bupivacaine HCl]
Adverse reaction: Abdominal distension [1]: (4.8%) | Adverse reaction: Abdominal pain [1]: (0.5%) | Adverse reaction: Abdominal pain upper [1]: (1.0%) | Adverse reaction: Anemia [1]: (0.7%) | Adverse reaction: Body temperature increased [1]: 0% | Adverse reaction: Chest pain [1]: (0.5%) | Adverse reaction: Constipation [1]: (41.8%) | Adverse reaction: Cough [1]: (1.8%) | Adverse reaction: Diarrhea [1]: (5.5%) | Adverse reaction: Dizziness [1]: (30.1%) | Adverse reaction: Dry mouth [1]: (1.0%) | Adverse reaction: Dysgeusia [1]: (16.9%) | Adverse reaction: Dyspepsia [1]: (1.9%) | Adverse reaction: Flatulence [1]: (4.0%) | Adverse reaction: Headache [1]: (32.3%) | Adverse reaction: Hypertension [1]: (3.6%) | Adverse reaction: Hypokalemia [1]: (1.4%) | Adverse reaction: Ileus [1]: (0.7%) | Adverse reaction: Incision site erythema [1]: (2.7%) | Adverse reaction: Incision site hematoma [1]: (1.7%) | Adverse reaction: Incision site hemorrhage [1]: (3.0%) | Adverse reaction: Incision site infection [1]: (2.5%) | Adverse reaction: Insomnia [1]: (2.9%) | Adverse reaction: Musculoskeletal pain [1]: (4.9%) | Adverse reaction: Nasopharyngitis [1]: 0% | Adverse reaction: Nausea [1]: (59.6%) | Adverse reaction: Oropharyngeal pain [1]: (1.0%) | Adverse reaction: Pain in extremity [1]: (2.8%) | Adverse reaction: Paresthesia [1]: (13.1%) | Adverse reaction: Post procedural contusion (bruising) [1]: (61.8%) | Adverse reaction: Post procedural discharge [1]: (4.4%) | Adverse reaction: Procedural pain [1]: (17.8%) | Adverse reaction: Pruritus [1]: (18.7%) | Adverse reaction: Pyrexia [1]: (5.7%) | Adverse reaction: Rash [1]: (3.8%) | Adverse reaction: Somnolence [1]: (41.0%) | Adverse reaction: Urinary retention [1]: (1.2%) | Adverse reaction: Vomiting [1]: (21.0%) | Adverse reaction: Wound dehiscence [1]: (1.5%) | Cmax (min, max), free bupivacaine [2]: (0.3, 10.1) ng/mL
